Results from US10947252B2, “Inhibitors of KEAP1-Nrf2 protein-protein interaction” (Janssen Pharmaceutica NV, priority 2018, dated 2021).

Assays:
[1] = biological target: Kelch domain of human KEAP1 (321-624 aa) (Homo sapiens (Human), UniProt Q14145); assay: KEAP1 KELCH ThermoFluor binding assay; conditions: KEAP Kelch […], 1,8-ANS, pH 7.0, average of results obtained, read-out: Tf Kd;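 further: Ligand-induced melting temperature shift of E. coli-expressed KEAP1 Kelch protein, Kd estimated from concentration-response curves of ΔTm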
[2] = system: Glo-Response ARE-luc2P HEK293 cell line; assay: ARE luciferase reporter cell-based assay; conditions: Homo sapiens, HEK293, 24 h, average of results obtained;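 further: luciferase signal tracks Nrf2 activation of the ARE once compounds disrupt KEAP1-Nrf2 binding, read with One-Glo reagent, DMSO serving as low control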

Chain of Kelch domain of human KEAP1 (321-624 aa) (Q14145 321-624): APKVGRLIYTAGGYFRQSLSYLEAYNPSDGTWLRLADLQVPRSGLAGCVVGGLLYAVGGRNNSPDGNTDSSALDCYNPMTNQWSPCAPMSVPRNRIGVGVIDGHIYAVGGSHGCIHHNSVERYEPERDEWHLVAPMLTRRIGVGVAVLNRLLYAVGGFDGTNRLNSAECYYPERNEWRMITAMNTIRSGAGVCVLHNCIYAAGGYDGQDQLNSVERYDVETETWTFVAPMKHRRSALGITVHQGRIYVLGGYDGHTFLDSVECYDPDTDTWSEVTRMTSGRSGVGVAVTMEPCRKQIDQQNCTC

Row | SMILES | Kd [1] | EC50 [2]
1 | Cc1ccc([C@@H](CC(=O)O)c2ccc3c(nnn3C3CC3)c2C)cc1CN1CC2(COC2)Oc2ccccc2S1(=O)=O (single isomer, unassigned) [Example 216, (*R)-3-(1-Cyclopropyl-4-methyl-1H-benzo[d][1,2,3]triazol-5-yl)-3-(3-((1,1-dioxidospiro[benzo[b][1,4,5]oxathiazepine-4,3′-oxetan]-2(3H)-yl)methyl)-4-methylphenyl)propanoic Acid] | 2 nM | 38 nM
2 | CC[C@@H]1CN(Cc2cc([C@H](CC(=O)O)c3cc(OC(F)F)c4c(c3)nnn4C)ccc2C)S(=O)(=O)c2cccnc2O1 (single isomer, unassigned) [Example 250, (*S)-3-(7-(Difluoromethoxy)-1-methyl-1H-benzo[d][1,2,3]triazol-5-yl)-3-(3-(((R)-4-ethyl-1,1-dioxido-3,4-dihydro-2H-pyrido[2,3-b][1,4,5]oxathiazepin-2-yl)methyl)-4-methylphenyl)propanoic Acid] | < 1 nM | 32.8 nM
3 | Cc1ccc([C@@H](c2ccn3c(C(F)(F)F)nnc3c2C)C(C)(C)C(=O)O)cc1CN1CC2(CCOCC2)Oc2nc(N[C@@H](C)CCO)ccc2S1(=O)=O (single isomer, unassigned) [Example 121, (*S)-3-(3-((7′-(((S)-4-Hydroxybutan-2-yl)amino)-1′,1′-dioxido-2,3,5,6-tetrahydrospiro[pyran-4,4′-pyrido[2,3-b][1,4,5]oxathiazepin]-2′(3′H)-yl)methyl)-4-methylphenyl)-2,2-dimethyl-3-(8-methyl-3-(trifluoromethyl)-[1,2,4[triazolo[4,3-a]pyridine-7-yl)propanoic Acid] | < 1 nM | 157 nM
4 | Cc1ccc([C@H](CC(=O)O)c2ccc3c(nnn3CC3CC3)c2C(F)F)cc1CN1C[C@H]2CCCCN2c2ncccc2S1(=O)=O (single isomer, unassigned) [Example 170, (*S)-3-(1-(Cyclopropylmethyl)-4-(difluoromethyl)-1H-benzo[d][1,2,3]triazol-5-yl)-3-(3-(((*R)-5,5-dioxido-7,7a,8,9,10,11-hexahydro-6H-dipyrido[2,1-d:2′,3′-f][1,2,5]thiadiazepin-6-yl)methyl)-4-methylphenyl)propanoic Acid] | < 1 nM | 110 nM

Now from value to compound, other results behind:

Row | Kd [1] | SMILES | EC50 [2]
5 | < 1 nM | Cc1cnc2c(c1)S(=O)(=O)N(Cc1cc([C@@H](c3ccc4c(nnn4C4CC4)c3C)C(C)(C)C(=O)O)ccc1C)CC1(CCNCC1)O2 (single isomer, unassigned) [Example 650, (*S)-3-(1-Cyclopropyl-4-methyl-1H-benzo[d][1,2,3]triazol-5-yl)-2,2-dimethyl-3-(4-methyl-3-((8′-methyl-1′,1′-dioxidospiro[piperidine-4,4′-pyrido[2,3-b][1,4,5]oxathiazepin]-2′(3′H)-yl)methyl)phenyl)propanoic Acid] | 4.36 nM
6 | < 1 nM | CCn1nnc2c(C)c([C@H](CC(=O)O)c3ccc(C)c(CN4C[C@@H]5CCCCN5c5ncccc5S4(=O)=O)n3)ccc21 (single isomer, unassigned) [Example 302, (*S)-3-(6-(((*S)-5,5-Dioxido-7,7a,8,9,10,11-hexahydro-6H-dipyrido[2,1-d:2′,3′-][1,2,5]thiadiazepin-6-yl)methyl)-5-methylpyridin-2-yl)-3-(1-ethyl-4-methyl-1H-benzo[d][1,2,3]triazol-5-yl)propanoic Acid] | 2.8 nM
7 | 1.83 nM | Cc1ccc([C@H](CC(=O)O)c2ccn3c(C(F)(F)F)nnc3c2C)nc1CN1CC2(COC2)Oc2ccccc2S1(=O)=O (single isomer, unassigned) [Example 486, (*R)-3-(6-((1,1-dioxidospiro[benzo[b][1,4,5]oxathiazepine-4,3′-oxetan]-2(3H)-yl)methyl)-5-methylpyridin-2-yl)-3-(8-methyl-3-(trifluoromethyl)-[1,2,4]triazolo[4,3-a]pyridin-7-yl)propanoic Acid] | 333 nM
8 | < 1 nM | CCn1nnc2c(C)c(C(CC(=O)O)c3ccc(C)c(CN4CC5(CCOCC5)Oc5ccc(F)cc5S4(=O)=O)n3)ccc21 (single isomer, unassigned) [Example 419, (*R)-3-(1-ethyl-4-methyl-1H-benzo[d][1,2,3]triazol-5-yl)-3-(6-((8-fluoro-1,1-dioxido-2′,3′,5′,6′-tetrahydrospiro[benzo[b][1,4,5]oxathiazepine-4,4′-pyran]-2(3H)-yl)methyl)-5-methylpyridin-2-yl)propanoic Acid] | 4.15 nM
9 | < 1 nM | Cc1ccc([C@H](CC(=O)O)c2ccn3c(C(F)(F)F)nnc3c2C)cc1CN1C[C@H]2CCCN2c2ncccc2S1(=O)=O (single isomer, unassigned) [Example 389, (*S)-3-(3-(((R)-5,5-Dioxido-7a,8,9,10-tetrahydropyrido[2,3-f]pyrrolo[2,1-d][1,2,5]thiadiazepin-6(7H)-yl)methyl)-4-methylphenyl)-3-(8-methyl-3-(trifluoromethyl)-[1,2,4]triazolo[4,3-a]pyridin-7-yl)propanoic Acid] | 12.1 nM
